Test results as given in ChEMBL document CHEMBL5678818, “Discovery of potent SOS1 inhibitors that block RAS activation via disruption of the RAS-SOS1 interaction” (Proc Natl Acad Sci U S A, 2019).

Columns and labels:
[1] = molecular target: Calcium/calmodulin-dependent protein kinase type 1B (Homo sapiens) (UniProt Q6P2M8); test: Inhibition of CAMK1B (unknown origin) assessed as residual activity at 1000 nM by KINOMEscan analysis relative to control
Homo sapiens = species: Homo sapiens; test: Inhibition of N-terminal GST-tagged recombinant human SOS1 H905A mutant (564 to 1049 residues) expressed in Escherichia coli assessed as reduction in KRAS G12C mutant activation at 10 uM by HTRF analysis relative to control
[2] = molecular target: T1, Atypical kinase COQ8B, mitochondrial (Homo sapiens) (UniProt Q96D53); test: Inhibition of ADCK4 (unknown origin) assessed as residual activity at 100 nM by KINOMEscan analysis relative to control
T1 sequence (whole entry): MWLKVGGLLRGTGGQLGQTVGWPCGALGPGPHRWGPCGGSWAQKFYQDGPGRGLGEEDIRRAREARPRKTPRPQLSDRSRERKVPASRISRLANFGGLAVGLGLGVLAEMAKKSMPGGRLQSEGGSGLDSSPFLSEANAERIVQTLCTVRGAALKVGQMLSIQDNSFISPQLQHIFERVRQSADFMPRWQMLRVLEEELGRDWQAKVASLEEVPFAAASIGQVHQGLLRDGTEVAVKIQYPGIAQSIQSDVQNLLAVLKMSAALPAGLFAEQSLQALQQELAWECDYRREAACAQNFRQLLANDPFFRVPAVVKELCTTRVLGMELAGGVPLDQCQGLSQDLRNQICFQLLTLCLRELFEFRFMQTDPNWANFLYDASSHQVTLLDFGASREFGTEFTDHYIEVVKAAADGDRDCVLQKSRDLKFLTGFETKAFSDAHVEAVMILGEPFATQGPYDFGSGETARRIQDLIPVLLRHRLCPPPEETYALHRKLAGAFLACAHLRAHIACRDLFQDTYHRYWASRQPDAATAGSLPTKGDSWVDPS

[3] = molecular target: Serine/threonine-protein kinase/endoribonuclease IRE1 (Homo sapiens) (UniProt O75460); test: Inhibition of ERN1 (unknown origin) assessed as residual activity at 100 nM by KINOMEscan analysis relative to control
[4] = molecular target: Homeodomain-interacting protein kinase 3 (Homo sapiens) (UniProt Q9H422); test: Inhibition of HIPK3 (unknown origin) assessed as residual activity at 100 nM by KINOMEscan analysis relative to control
[5] = molecular target: T2, Serine/threonine-protein kinase STK11 (Homo sapiens) (UniProt Q15831); test: Inhibition of LKB1 (unknown origin) assessed as residual activity at 100 nM by KINOMEscan analysis relative to control
T2 sequence (whole entry): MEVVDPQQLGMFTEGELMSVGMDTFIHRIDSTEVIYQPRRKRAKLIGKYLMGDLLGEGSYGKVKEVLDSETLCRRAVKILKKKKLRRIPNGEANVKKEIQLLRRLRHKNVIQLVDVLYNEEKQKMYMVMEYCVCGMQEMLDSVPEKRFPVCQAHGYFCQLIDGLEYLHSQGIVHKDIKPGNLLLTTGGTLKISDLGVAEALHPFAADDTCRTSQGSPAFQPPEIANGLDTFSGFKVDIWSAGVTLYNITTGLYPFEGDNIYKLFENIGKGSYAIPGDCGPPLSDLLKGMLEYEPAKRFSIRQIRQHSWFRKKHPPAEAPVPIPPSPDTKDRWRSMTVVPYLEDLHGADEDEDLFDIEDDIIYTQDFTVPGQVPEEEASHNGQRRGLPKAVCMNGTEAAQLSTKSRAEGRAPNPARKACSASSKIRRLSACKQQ

[6] = molecular target: Serine/threonine-protein kinase 24 (Homo sapiens) (UniProt Q9Y6E0); test: Inhibition of MST3 (unknown origin) assessed as residual activity at 100 nM by KINOMEscan analysis relative to control
[7] = molecular target: T3, cAMP-dependent protein kinase catalytic subunit PRKX (Homo sapiens) (UniProt P51817); test: Inhibition of PRKX (unknown origin) assessed as residual activity at 100 nM by KINOMEscan analysis relative to control
T3 sequence (whole entry): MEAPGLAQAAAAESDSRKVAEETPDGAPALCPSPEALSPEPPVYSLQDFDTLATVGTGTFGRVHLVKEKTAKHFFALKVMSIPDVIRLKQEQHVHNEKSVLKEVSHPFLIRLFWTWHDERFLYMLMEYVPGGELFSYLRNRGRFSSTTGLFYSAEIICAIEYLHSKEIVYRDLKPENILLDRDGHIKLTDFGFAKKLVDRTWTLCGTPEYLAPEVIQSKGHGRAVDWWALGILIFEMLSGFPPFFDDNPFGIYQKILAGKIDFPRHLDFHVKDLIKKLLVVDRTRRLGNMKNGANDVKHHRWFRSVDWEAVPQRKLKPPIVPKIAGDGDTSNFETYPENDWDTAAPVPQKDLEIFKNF

[8] = molecular target: Microtubule-associated serine/threonine-protein kinase 1 (Homo sapiens) (UniProt Q9Y2H9); test: Inhibition of MAST1 (unknown origin) assessed as residual activity at 100 nM by KINOMEscan analysis relative to control
Chain of Microtubule-associated serine/threonine-protein kinase 1 (Homo sapiens) (Q9Y2H9 whole entry, looked up): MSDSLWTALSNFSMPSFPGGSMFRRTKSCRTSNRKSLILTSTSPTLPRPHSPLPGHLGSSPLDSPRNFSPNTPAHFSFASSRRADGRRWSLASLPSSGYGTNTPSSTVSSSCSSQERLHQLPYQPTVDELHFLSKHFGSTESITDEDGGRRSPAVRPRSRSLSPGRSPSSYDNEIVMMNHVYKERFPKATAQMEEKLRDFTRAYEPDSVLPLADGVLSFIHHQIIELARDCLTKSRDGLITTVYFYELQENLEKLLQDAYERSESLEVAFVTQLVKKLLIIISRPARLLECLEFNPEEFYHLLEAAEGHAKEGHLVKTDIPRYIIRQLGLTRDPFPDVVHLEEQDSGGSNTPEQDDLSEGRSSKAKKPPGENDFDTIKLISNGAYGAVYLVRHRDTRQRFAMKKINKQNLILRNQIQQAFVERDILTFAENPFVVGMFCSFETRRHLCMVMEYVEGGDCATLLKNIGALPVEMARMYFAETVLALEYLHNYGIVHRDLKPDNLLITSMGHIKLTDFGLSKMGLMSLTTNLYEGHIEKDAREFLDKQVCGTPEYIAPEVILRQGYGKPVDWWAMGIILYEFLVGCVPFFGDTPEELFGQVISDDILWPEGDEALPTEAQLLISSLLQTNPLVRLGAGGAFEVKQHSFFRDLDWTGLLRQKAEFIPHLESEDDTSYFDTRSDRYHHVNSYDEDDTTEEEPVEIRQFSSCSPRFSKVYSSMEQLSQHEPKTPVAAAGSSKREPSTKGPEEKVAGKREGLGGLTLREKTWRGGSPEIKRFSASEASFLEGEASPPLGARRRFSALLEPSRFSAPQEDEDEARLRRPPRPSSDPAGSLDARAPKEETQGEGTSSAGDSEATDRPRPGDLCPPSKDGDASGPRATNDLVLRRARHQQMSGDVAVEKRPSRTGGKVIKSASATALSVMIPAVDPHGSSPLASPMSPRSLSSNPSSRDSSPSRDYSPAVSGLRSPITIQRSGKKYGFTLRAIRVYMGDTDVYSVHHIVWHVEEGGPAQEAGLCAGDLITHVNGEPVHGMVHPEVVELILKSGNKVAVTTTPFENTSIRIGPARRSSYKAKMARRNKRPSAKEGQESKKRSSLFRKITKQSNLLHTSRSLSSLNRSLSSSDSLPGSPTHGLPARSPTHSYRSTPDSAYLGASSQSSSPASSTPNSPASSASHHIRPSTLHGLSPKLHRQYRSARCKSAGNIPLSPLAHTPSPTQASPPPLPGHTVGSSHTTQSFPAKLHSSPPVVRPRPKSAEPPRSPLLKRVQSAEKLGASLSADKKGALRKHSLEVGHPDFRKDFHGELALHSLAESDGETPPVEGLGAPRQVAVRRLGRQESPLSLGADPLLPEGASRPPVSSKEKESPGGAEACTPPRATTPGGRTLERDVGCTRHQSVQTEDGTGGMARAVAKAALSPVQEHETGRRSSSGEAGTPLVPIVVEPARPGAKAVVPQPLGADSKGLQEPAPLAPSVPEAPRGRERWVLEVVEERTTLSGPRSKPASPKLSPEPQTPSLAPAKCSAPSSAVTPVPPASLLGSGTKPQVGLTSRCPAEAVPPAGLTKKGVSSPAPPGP

Chain of Serine/threonine-protein kinase 24 (Homo sapiens) (Q9Y6E0 whole entry, looked up): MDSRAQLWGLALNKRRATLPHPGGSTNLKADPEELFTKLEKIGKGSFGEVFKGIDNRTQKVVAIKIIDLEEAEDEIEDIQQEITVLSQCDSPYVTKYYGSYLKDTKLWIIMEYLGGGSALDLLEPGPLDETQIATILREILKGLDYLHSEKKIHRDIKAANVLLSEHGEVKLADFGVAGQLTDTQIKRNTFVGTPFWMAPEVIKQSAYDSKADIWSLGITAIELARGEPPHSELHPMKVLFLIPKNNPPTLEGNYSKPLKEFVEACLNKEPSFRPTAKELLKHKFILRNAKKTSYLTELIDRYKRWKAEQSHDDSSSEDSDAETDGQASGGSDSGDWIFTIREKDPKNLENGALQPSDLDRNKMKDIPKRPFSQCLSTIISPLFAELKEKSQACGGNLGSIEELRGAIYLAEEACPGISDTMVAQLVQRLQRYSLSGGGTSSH
Chain of Calcium/calmodulin-dependent protein kinase type 1B (Homo sapiens) (Q6P2M8 whole entry, the tested form may be a part): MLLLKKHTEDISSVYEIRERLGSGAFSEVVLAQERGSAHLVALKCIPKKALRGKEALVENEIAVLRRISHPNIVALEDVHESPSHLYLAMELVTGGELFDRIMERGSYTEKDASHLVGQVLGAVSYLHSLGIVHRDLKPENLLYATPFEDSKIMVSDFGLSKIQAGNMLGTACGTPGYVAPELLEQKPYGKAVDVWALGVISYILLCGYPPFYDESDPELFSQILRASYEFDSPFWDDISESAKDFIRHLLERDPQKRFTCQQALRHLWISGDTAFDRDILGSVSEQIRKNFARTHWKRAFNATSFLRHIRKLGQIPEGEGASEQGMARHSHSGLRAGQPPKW
Chain of Serine/threonine-protein kinase/endoribonuclease IRE1 (Homo sapiens) (O75460 19-977 limits assumed): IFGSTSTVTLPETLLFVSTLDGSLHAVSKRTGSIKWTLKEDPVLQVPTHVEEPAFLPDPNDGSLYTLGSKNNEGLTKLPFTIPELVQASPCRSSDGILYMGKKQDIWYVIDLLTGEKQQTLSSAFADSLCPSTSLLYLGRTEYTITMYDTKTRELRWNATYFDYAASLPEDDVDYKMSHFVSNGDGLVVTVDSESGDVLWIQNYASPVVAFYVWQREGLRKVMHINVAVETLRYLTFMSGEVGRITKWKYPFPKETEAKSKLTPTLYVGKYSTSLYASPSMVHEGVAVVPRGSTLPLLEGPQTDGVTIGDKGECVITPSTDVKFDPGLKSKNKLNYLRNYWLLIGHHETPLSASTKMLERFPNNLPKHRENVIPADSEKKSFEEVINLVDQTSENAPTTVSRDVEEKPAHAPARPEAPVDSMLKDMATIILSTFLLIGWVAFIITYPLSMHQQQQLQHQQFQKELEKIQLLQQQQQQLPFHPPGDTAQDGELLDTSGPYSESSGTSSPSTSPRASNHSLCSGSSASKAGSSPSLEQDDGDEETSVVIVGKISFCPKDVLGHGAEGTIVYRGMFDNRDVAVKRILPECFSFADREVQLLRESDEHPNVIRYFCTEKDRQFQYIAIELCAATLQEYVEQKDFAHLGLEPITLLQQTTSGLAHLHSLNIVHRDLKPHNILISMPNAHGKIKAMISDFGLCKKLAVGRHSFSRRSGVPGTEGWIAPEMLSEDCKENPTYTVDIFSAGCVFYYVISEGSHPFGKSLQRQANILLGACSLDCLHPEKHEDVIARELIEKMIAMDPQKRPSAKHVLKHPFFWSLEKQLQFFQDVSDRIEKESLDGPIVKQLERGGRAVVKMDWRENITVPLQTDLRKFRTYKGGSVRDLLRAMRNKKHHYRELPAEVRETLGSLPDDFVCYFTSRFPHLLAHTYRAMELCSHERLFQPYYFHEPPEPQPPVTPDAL
Chain of Homeodomain-interacting protein kinase 3 (Homo sapiens) (Q9H422 whole entry, looked up): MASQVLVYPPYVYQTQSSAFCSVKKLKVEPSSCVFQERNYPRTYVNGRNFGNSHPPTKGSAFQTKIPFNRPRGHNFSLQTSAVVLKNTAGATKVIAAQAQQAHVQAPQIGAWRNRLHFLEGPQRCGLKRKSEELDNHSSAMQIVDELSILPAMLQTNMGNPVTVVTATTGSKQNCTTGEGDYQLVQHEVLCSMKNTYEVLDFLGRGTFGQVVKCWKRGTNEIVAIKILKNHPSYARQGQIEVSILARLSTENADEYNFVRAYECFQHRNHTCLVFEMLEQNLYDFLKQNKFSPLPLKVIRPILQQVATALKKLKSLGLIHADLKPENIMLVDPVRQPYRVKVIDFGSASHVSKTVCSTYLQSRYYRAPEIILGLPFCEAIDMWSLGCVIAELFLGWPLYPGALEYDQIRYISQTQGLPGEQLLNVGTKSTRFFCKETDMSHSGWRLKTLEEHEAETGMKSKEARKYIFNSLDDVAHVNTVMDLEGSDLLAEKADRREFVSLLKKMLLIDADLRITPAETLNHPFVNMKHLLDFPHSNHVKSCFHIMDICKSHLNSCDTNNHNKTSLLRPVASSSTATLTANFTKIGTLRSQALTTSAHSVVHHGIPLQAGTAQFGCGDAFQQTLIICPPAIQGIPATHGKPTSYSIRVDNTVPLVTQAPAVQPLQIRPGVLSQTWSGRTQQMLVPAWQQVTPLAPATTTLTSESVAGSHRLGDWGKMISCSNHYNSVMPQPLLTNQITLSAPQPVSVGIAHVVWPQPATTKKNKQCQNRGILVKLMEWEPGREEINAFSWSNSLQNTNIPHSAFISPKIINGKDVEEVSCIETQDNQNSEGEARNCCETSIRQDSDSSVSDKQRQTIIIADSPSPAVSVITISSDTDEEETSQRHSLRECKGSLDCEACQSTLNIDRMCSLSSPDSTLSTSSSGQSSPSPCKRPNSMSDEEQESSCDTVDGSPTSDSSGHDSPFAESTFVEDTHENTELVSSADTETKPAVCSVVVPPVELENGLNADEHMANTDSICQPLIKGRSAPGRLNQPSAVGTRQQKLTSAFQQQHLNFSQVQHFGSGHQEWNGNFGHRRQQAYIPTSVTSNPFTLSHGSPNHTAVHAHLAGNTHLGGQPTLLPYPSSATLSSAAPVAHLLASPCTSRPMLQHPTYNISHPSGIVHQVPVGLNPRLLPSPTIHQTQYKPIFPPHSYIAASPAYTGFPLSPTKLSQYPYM

## COc1cc2nc(C)nc(N[C@H](C)c3cccc(-c4cn[nH]c4)c3)c2cc1OC
[1]
  Activity: 85%

## COc1cc2ncnc(N[C@H](C)c3cccc4ccccc34)c2cc1OC
Homo sapiens
  inhibition: 52%
[2]
  Activity: 61%
[3]
  Activity: 96%
[4]
  Activity: 88%
[5]
  Activity: 100%
[6]
  Activity: 99%
[7]
  Activity: 100%
[8]
  Activity: 71%
